Experiments:
[1] = biological target: Glycogen synthase kinase-3 beta (Homo sapiens, UniProt P49841); experiment: Inhibition of GSK3B (unknown origin)
Mus musculus = experiment: Antialzheimer activity in 5XFAD mouse assessed as number of Iba positive cells per FOV in microglia at 1200 ppm administered as rodent chow for 3 days by DAPI staining based immunolabeling analysis (reference value: 119 to 154); type: functional; settings: route po, time 3 day
[2] = biological target: Serine/threonine-protein kinase D3 (Homo sapiens, UniProt O94806); experiment: Inhibition of PRKCN (unknown origin)
Sequence of Serine/threonine-protein kinase D3 (O94806 whole entry): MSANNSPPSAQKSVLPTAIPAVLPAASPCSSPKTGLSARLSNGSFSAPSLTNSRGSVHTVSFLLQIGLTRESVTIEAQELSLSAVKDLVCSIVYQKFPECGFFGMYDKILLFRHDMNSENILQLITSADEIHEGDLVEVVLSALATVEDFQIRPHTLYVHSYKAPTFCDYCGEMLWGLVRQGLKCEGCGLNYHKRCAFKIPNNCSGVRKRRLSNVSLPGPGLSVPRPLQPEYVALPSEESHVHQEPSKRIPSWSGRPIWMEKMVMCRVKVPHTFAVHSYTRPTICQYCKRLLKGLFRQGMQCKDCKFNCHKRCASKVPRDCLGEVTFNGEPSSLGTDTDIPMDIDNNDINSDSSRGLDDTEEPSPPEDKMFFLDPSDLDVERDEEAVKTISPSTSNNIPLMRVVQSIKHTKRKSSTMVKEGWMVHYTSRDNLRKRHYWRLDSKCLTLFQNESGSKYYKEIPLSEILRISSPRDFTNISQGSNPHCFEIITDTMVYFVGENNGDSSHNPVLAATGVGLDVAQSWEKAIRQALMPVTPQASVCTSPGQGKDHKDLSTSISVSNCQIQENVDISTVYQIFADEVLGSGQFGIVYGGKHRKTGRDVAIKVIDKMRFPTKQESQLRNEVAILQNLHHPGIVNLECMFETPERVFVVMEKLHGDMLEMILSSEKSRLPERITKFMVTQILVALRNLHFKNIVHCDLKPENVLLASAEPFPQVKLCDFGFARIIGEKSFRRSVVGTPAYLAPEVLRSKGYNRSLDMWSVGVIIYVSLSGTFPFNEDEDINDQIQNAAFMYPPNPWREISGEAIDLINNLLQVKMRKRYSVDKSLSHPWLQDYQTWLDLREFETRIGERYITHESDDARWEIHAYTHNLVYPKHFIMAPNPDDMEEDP

[3] = biological target: Protein kinase C iota type (Homo sapiens, UniProt P41743); experiment: Inhibition of PRKCI (unknown origin)
Sequence of Protein kinase C iota type (P41743 whole entry): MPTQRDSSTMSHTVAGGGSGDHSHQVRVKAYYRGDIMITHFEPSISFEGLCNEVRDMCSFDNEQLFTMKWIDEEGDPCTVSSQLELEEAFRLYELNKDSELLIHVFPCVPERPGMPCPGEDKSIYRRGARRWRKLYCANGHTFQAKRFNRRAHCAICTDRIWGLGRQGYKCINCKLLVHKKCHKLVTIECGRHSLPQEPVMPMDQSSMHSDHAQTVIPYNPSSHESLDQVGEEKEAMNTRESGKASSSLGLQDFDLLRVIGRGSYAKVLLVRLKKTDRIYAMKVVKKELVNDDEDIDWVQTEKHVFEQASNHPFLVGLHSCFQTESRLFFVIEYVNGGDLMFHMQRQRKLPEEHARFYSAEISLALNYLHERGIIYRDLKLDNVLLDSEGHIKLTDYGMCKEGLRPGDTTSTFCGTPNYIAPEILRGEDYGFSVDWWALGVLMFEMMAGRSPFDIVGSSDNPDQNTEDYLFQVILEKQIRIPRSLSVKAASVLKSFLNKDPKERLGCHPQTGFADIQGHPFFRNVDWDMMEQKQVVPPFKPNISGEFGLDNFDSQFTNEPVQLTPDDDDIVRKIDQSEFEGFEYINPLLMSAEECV

[4] = biological target: Testis-specific serine/threonine-protein kinase 1 (Homo sapiens, UniProt Q9BXA7); experiment: Inhibition of STK22D (unknown origin)
Sequence of Testis-specific serine/threonine-protein kinase 1 (Q9BXA7 whole entry): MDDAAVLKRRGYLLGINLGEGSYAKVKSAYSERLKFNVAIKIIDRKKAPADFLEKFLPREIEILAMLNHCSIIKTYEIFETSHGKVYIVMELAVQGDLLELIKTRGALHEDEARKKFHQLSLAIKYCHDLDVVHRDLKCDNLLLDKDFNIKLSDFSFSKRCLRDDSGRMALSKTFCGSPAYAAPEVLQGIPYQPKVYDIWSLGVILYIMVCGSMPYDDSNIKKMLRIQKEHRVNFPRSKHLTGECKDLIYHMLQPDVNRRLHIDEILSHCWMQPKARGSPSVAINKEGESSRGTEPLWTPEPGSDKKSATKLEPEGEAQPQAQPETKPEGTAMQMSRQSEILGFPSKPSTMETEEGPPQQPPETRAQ

[5] = Effect on Hexb gene expression in wild type mouse thalamus at 1200 ppm administered as rodent chow starting from 1.5 months and measured after 7 months by RNA-Seq analysis (reference value: 45.201 to 52.726 RPKM); type: functional; settings: route po, time 5.5 months, 4015 h
[6] = biological target: Receptor tyrosine-protein kinase erbB-4 (Homo sapiens, UniProt Q15303); experiment: Inhibition of ERBB4 (unknown origin)
Sequence of Receptor tyrosine-protein kinase erbB-4 (Q15303 whole entry): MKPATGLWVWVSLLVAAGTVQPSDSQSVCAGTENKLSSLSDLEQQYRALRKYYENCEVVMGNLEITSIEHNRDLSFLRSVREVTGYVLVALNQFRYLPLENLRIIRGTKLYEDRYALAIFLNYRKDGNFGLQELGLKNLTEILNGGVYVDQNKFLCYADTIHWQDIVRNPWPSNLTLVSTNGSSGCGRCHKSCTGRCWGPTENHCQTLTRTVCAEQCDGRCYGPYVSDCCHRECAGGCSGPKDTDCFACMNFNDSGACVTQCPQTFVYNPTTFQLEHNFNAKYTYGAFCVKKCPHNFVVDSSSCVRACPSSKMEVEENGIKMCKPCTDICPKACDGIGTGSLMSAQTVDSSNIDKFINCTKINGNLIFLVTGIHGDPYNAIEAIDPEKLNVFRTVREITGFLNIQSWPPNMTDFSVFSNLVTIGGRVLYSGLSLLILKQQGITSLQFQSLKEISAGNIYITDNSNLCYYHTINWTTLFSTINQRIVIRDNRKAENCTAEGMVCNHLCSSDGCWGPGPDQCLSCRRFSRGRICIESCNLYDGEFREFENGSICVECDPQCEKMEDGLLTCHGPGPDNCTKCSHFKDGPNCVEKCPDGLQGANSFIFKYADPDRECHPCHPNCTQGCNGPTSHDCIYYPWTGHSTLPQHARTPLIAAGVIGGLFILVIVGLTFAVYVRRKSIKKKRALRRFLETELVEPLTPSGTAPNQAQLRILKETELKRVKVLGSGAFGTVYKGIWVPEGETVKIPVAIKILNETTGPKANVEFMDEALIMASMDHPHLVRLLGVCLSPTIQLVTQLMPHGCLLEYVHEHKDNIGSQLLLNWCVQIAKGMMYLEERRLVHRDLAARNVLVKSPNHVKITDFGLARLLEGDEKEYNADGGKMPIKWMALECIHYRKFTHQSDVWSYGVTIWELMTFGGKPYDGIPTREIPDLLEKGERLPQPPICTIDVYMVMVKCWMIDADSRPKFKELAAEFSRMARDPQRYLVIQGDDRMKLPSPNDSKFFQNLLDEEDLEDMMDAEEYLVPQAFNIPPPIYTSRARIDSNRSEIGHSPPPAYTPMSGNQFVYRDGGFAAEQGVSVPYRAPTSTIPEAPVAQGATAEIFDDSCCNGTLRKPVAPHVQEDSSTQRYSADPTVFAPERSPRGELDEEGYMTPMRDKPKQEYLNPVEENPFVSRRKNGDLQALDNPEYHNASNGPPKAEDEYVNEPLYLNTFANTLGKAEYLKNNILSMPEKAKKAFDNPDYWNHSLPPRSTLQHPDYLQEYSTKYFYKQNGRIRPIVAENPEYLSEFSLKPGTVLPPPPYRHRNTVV

Sequence of Glycogen synthase kinase-3 beta (P49841 whole entry): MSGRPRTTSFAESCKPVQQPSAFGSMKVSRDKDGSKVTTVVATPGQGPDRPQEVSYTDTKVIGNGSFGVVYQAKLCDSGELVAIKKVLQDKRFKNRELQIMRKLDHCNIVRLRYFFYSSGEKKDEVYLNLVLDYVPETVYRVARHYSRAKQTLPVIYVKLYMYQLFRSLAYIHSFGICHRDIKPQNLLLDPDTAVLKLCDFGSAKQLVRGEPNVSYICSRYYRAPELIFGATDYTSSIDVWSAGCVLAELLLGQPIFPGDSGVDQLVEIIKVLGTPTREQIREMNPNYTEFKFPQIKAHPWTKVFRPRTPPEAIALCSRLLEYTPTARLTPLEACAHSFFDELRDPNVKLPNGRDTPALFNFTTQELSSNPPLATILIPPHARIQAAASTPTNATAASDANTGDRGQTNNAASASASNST

COc1ncc(F)cc1CNc1ccc(Cc2c[nH]c3ncc(C)cc23)c(F)n1 [PLX-5622]
IC50 [1]: > 1000 nM
Activity (Mus musculus): 1
IC50 [2]: > 1000 nM
IC50 [3]: > 1000 nM
IC50 [4]: > 1000 nM
Activity [5]: 10.895 RPKM
IC50 [6]: > 1000 nM
